Measurements reported in publication PMC2819846 (Mutation research, 2008).

Experiments:
strain TA100 = assay type: cell-based, Salmonella; conditions: TA100 liquid-suspension, 20 µg/ml
Salmonella TA100 = test: Salmonella plate-incorporation mutagenicity assay, strain TA100; assay type: cell-based
Salmonella = conditions: cited from earlier work
Salmonella TA98 = test: Salmonella plate-incorporation mutagenicity assay, strain TA98, with S9 mix; assay type: cell-based
[1] = system: DNA from Salmonella TA100; test: Abasic sites by aldehydic-site assay in DNA of treated TA100; assay type: cell-based; conditions: TA100, 20 µg/ml; DMSO 5.9 ± 0.33
[2] = system: DNA from Salmonella TA100; test: Stable DNA adducts by 32P-postlabeling in DNA of treated TA100; assay type: cell-based; conditions: TA100, 20 µg/ml; DMSO 0.024 ± 0.000
Salmonella TA104 = test: Salmonella plate-incorporation mutagenicity assay, strain TA104, with S9 mix; assay type: cell-based

SMILES: c1ccc2c(c1)ccc1ccc3ccccc3c12 [B[c]P, Benzo[c]phenanthrene]
- Fold increase in mutant frequency relative to DMSO-treated cells (strain TA100): 3.9 fold
- Rev/10^6 survivors (strain TA100; DMSO 0.8): 3.1 Rev/10^6 survivors
- Percent survival (strain TA100; DMSO 100): 71%
- Rev/plate (Salmonella TA100; TA100 +S9, Test 1, 2 µg/plate, zero-dose 99/110/110): 251 rev/plate
- Rev/plate (Salmonella TA100; TA100 +S9, Test 1, 5 µg/plate, zero-dose 99/110/110): 388 rev/plate
- Rev/plate (Salmonella TA100; TA100 +S9, Test 1, 10 µg/plate, zero-dose 99/110/110): 467 rev/plate
- Rev/plate (Salmonella TA100; TA100 +S9, Test 1, 20 µg/plate, zero-dose 99/110/110): 503 rev/plate
- Rev/plate (Salmonella TA100; TA100 +S9, Test 1, 40 µg/plate, zero-dose 99/110/110): 494 rev/plate
- Rev/plate (Salmonella TA100; TA100 +S9, Test 1, 80 µg/plate, zero-dose 99/110/110): 354 rev/plate
- Rev/plate (Salmonella TA100; TA100 +S9, Test 2, 0.5 µg/plate, zero-dose 84/78/80): 97/85
- Rev/plate (Salmonella TA100; TA100 +S9, Test 2, 1 µg/plate, zero-dose 84/78/80): 114/78
- Rev/plate (Salmonella TA100; TA100 +S9, Test 2, 2 µg/plate, zero-dose 84/78/80): 117/143
- Rev/plate (Salmonella TA100; TA100 +S9, Test 2, 5 µg/plate, zero-dose 84/78/80): 300/204
- Rev/plate (Salmonella TA100; TA100 +S9, Test 3, 0.5 µg/plate, zero-dose 127/118/125): 180/190
- Rev/plate (Salmonella TA100; TA100 +S9, Test 3, 1 µg/plate, zero-dose 127/118/125): 250/217
- Rev/plate (Salmonella TA100; TA100 +S9, Test 3, 2 µg/plate, zero-dose 127/118/125): 300/303
- Rev/plate (Salmonella TA100; TA100 +S9, Test 3, 5 µg/plate, zero-dose 127/118/125): 510/499
- Mutagenic potency, Revertants/µg ± S.E., TA100 (Salmonella TA100; plate-incorporation, +S9): 56.4 ± 12.1 rev/µg
- Mutagenicity call TA100 (Salmonella TA100; plate-incorporation, +S9): (+) (Called mutagenic (+) based on showing reproducible, dose-related increases in rev/plate that reached or exceeded 2-fold relative to zero-dose controls)
- Mutagenicity in Salmonella (early studies) (Salmonella): mutagenic
- Rev/plate (Salmonella TA98; TA98 +S9, Test 1, 2 µg/plate, zero-dose 33/40/39): 37 rev/plate
- Rev/plate (Salmonella TA98; TA98 +S9, Test 1, 5 µg/plate, zero-dose 33/40/39): 43 rev/plate
- Rev/plate (Salmonella TA98; TA98 +S9, Test 1, 10 µg/plate, zero-dose 33/40/39): 57 rev/plate
- Rev/plate (Salmonella TA98; TA98 +S9, Test 1, 20 µg/plate, zero-dose 33/40/39): 60 rev/plate
- Rev/plate (Salmonella TA98; TA98 +S9, Test 1, 40 µg/plate, zero-dose 33/40/39): 50 rev/plate
- Rev/plate (Salmonella TA98; TA98 +S9, Test 1, 80 µg/plate, zero-dose 33/40/39): 35 rev/plate
- Rev/plate (Salmonella TA98; TA98 +S9, Test 2, 0.5 µg/plate, zero-dose 43/41/30): 44/36
- Rev/plate (Salmonella TA98; TA98 +S9, Test 2, 1 µg/plate, zero-dose 43/41/30): 41/35
- Rev/plate (Salmonella TA98; TA98 +S9, Test 2, 2 µg/plate, zero-dose 43/41/30): 38/37
- Rev/plate (Salmonella TA98; TA98 +S9, Test 2, 5 µg/plate, zero-dose 43/41/30): 56/50
- Rev/plate (Salmonella TA98; TA98 +S9, Test 3, 0.5 µg/plate, zero-dose 49/50/50): 49/36
- Rev/plate (Salmonella TA98; TA98 +S9, Test 3, 1 µg/plate, zero-dose 49/50/50): 52/54
- Rev/plate (Salmonella TA98; TA98 +S9, Test 3, 2 µg/plate, zero-dose 49/50/50): 60/50
- Rev/plate (Salmonella TA98; TA98 +S9, Test 3, 5 µg/plate, zero-dose 49/50/50): 87/61
- Mutagenic potency, Revertants/µg ± S.E., TA98 (Salmonella TA98; plate-incorporation, +S9): 1.2 ± 1.3 rev/µg
- Abasic sites/10^5 nucleotides ± S.E [1]: 3.3 ± 0.12 sites/10^5 nucleotides
- Stable adducts/10^8 nucleotides ± S.E [2]: 1.600 ± 0.040 adducts/10^8 nucleotides
- Rev/plate (Salmonella TA104; TA104 +S9, Test 2, 0.5 µg/plate, zero-dose 276/260/270): 432/407
- Rev/plate (Salmonella TA104; TA104 +S9, Test 2, 1 µg/plate, zero-dose 276/260/270): 504/506
- Rev/plate (Salmonella TA104; TA104 +S9, Test 2, 2 µg/plate, zero-dose 276/260/270): 570/609
- Rev/plate (Salmonella TA104; TA104 +S9, Test 2, 5 µg/plate, zero-dose 276/260/270): 753/894
- Rev/plate (Salmonella TA104; TA104 +S9, Test 3, 0.5 µg/plate, zero-dose 402/395/336): 523/486
- Rev/plate (Salmonella TA104; TA104 +S9, Test 3, 1 µg/plate, zero-dose 402/395/336): 636/581
- Rev/plate (Salmonella TA104; TA104 +S9, Test 3, 2 µg/plate, zero-dose 402/395/336): 588/660
- Rev/plate (Salmonella TA104; TA104 +S9, Test 3, 5 µg/plate, zero-dose 402/395/336): 850/824
- Mutagenic potency, Revertants/µg ± S.E., TA104 (Salmonella TA104; plate-incorporation, +S9): 241 ± 25 rev/µg
- Mutagenicity call TA104 (Salmonella TA104; plate-incorporation, +S9): (+) (Called mutagenic (+) based on showing reproducible, dose-related increases in rev/plate that reached or exceeded 2-fold relative to zero-dose controls)
